Results: US20230051589A1, “COMPOUNDS AND COMPOSITIONS FOR TREATING CONDITIONS ASSOCIATED WITH NLRP ACTIVITY” (Novartis AG, priority 2018, published 2023)
Read-outs that look alike come from different tables or passages of the source.

System: IL-1β production in PMA-differentiated THP-1 cells
Assay: IL-1β production in PMA-differentiated THP-1 cells stimulated with gramicidin (hTHP-1 assay, 2% fetal bovine serum; Procedures 1-3)
Format: cell-based, human
Experimental: The following protocol is suitable for testing the activity of the compounds disclosed herein.
Procedure 1: IL-1β Production in PMA-Differentiated THP-1 Cells Stimulated with Gramicidin.
THP-1 cells were purchased from the American Type Culture Collection and sub-cultured according to instructions from the supplier. Cells were cultured in complete RPMI 1640 (containing 10% heat inactivated FBS, penicillin (100 units/ml) and streptomycin (100 μg/ml)), and maintained in log phase prior to experimental setup. Prior to the experiment, compounds were dissolved in dimethyl sulfoxide (DMSO) to generate a 30 mM stock. The compound stock was first pre-diluted in DMSO to 3, 0.34, 0.042 and 0.0083 mM intermediate concentrations and subsequently spotted using Echo550 liquid handler into an empty 384-well assay plate to achieve desired final concentration (e.g. 100, 33, 11, 3.7, 1.2, 0.41, 0.14, 0.046, 0.015, 0.0051, 0.0017 μM). DMSO was backfilled in the plate to achieve a final DMSO assay concentration of 0.37%. The plate was then sealed and stored at room temperature until required.
THP-1 cells were treated with PMA (Phorbol 12-myristate 13-acetate) (20 ng/ml) for 16-18 hours. On the day of the experiment the media was removed and adherent cells were detached with trypsin for 5 minutes. Cells were then harvested, washed with complete RPMI 1640, spun down, and resuspended in RPMI 1640 (containing 2% heat inactivated FBS, penicillin (100 units/ml) and streptomycin (100 μg/ml). The cells were plated in the 384-well assay plate containing the spotted compounds at a density of 50,000 cells/well (final assay volume 50 μl). Cells were incubated with compounds for 1 hour and then stimulated with gramicidin (5 μM) (Enzo) for 2 hours. Plates were then centrifuged at 340 g for 5 min. Cell free supernatant (40 μL) was collected using a 96-channel PlateMaster (Gilson) and the production of IL-1β was evaluated by HTRF (cisbio). The plates were incubated for 18 h at 4° C. and read using the preset HTRF program (donor emission at 620 nm, acceptor emission at 668 nm) of the SpectraMax i3x spectrophotometer (Molecular Devices, software SoftMax 6). A vehicle only control and a dose titration of CRID3 (100-0.0017 μM) were run concurrently with each experiment.
Procedure 2: IL-1β Production in PMA-Differentiated THP-1 Cells Stimulated with Gramicidin.
THP-1 cells were purchased from the American Type Culture Collection and sub-cultured according to instructions from the supplier. Prior to experiments, cells were cultured in complete RPMI 1640 (containing 10% heat inactivated FBS, penicillin (100 units/ml) and streptomycin (100 μg/ml)), and maintained in log phase prior to experimental setup. Prior to the experiment THP-1 were treated with PMA (Phorbol 12-myristate 13-acetate) (20 ng/ml) for 16-18 hours. Compounds were dissolved in dimethyl sulfoxide (DMSO) to generate a 30 mM stock. On the day of the experiment the media was removed and adherent cells were detached with trypsin for 5 minutes. Cells were then harvested, washed with complete RPMI 1640, spun down, resuspended in RPMI 1640 (containing 2% heat inactivated FBS, penicillin (100 units/ml) and streptomycin (100 μg/ml) . The cells were plated in a 384-well plate at a density of 50,000 cells/well (final assay volume 50 μl). Compounds were first dissolved in assay medium to obtain a 5× top concentration of 500 μM. 10 step dilutions (1:3) were then undertaken in assay medium containing 1.67% DMSO. 5× compound solutions were added to the culture medium to achieve desired final concentration (e.g. 100, 33, 11, 3.7, 1.2, 0.41, 0.14, 0.046, 0.015, 0.0051, 0.0017 μM). Final DMSO concentration was at 0.37%. Cells were incubated with compounds for 1 hour and then stimulated with gramicidin (5 μM) (Enzo) for 2 hours. Plates were then centrifuged at 340 g for 5 min. Cell free supernatant (40 μL) was collected using a 96-channel PlateMaster (Gilson) and the production of IL-1β was evaluated by HTRF (cisbio). […]

[1] = hTHP-1 assay containing 2% fetal bovine serum, Table B2, class symbols, read-out: IC50
[2] = Homo sapiens, THP-1, hTHP-1 assay containing 2% fetal bovine serum, Table B2, class symbols, read-out: IC50
[3] = Homo sapiens, THP-1, Table B3, hTHP-1 assay containing 2% fetal bovine serum, gramicidin stimulation, IL-1β readout, read-out: hTHP-1 IC50
[4] = Table B3, hTHP-1 assay containing 2% fetal bovine serum, gramicidin stimulation, IL-1β readout, read-out: hTHP-1 IC50

An IC50 [1] of 1 to 5 µM was found for `CO[C@H]1COc2c(S(N)(=O)=NC(=O)Nc3c4c(cc5c3CC5)CCC4)cnn2C1` (single isomer, unassigned) [Example 535, (S,6R) or (R,6R)-6-methoxy-N′-((2,4,5,6-tetrahydro-1H-cyclobuta[f]inden-3-yl)caibamoyl)-6,7-dihydro-5H-pyrazolo [5,1-b][1,3]oxazine-3-sulfonimidamide] in this work.

An IC50 [2] of 0.04 to 0.2 µM was found for `CCn1ccc([S@](N)(=O)=NC(=O)Nc2c3c(cc4c2CC4)CCC3)n1` [Compound 916a] in this work.

An IC50 (Table B1, hTHP-1 assay containing 2% fetal bovine serum, gramicidin stimulation, IL-1β readout, read-out: hTHP-1 IC50 (average)) of 0.04 to 0.2 µM was found for `CC1CCc2c1cc1c(c2NC(=O)N=S(N)(=O)c2cnc(C(C)(C)O)s2)CCC1` (stereo not drawn) [Example 291, 2-(2-Hydroxypropan-2-yl)-N′-((1-methyl-1,2,3,5,6,7-hexahydro-s-indacen-4-yl)-carbamoyl)thiazole-5-sulfon-imidamide] in this work.

An IC50 [2] of 0.2 to 1 µM was found for `CC(C)(O)c1ccc(S(N)(=O)=NC(=O)Nc2c3c(c(C#N)c4c2CCC4)CCC3)cn1` (stereo not drawn) [Example 470, N′-((8-cyano-1,2,3,5,6,7-hexahydro-s-indacen-4-yl)carbamoyl)-6-(2-hydroxypropan-2-yl)pyridine-3-sulfonimidamide] in this work.

An IC50 [1] of 0.2 to 1 µM was found for `CN(C)C(c1ccc(S(N)(=O)=NC(=O)Nc2c3c(cc4c2CCC4)CCC3)cc1)C1CC1` (single isomer, unassigned) [Example 661] in this work.

An IC50 [2] of 1 to 5 µM was found for `NS(=O)(=NC(=O)Nc1c2c(cc3c1CCC3)CCC2)c1ccc(C2CCN2)cc1` (stereo not drawn) [Example 444, 4-(Azetidin-2-yl)-N′-((1,2,3,5,6,7-hexahydro-s-indacen-4-yl)carbamoyl)benzenesulfonimidamide] in this work.

An IC50 [3] of 1 to 5 µM was found for `NS(=O)(=NC(=O)Nc1c2c(cc3c1CCC3)CCC2)c1cnc(C(O)(COCCO)COCCO)s1` (stereo not drawn) [Example 751, N′-((1,2,3,5,6,7-hexahydro-s-indacen-4-yl)carbamoyl)-2-(2-hydroxy-1,3-bis(2-hydroxyethoxy)propan-2-yl)thiazole-5-sulfonimidamide] in this work.

An IC50 [4] of 1 to 5 µM was found for `CNCc1csc(S(N)(=O)=NC(=O)Nc2c3c(cc4c2CC4)CCC3)c1F` (single isomer, unassigned) [Example 871, (S) or (R) -3-fluoro-4-((methylamino)methyl)-N′-((2,4,5,6-tetrahydro-1H-cyclobuta[f]inden-3-yl)carbamoyl)thiophene-2-sulfonimidamide] in this work.

An IC50 [1] of 5 to 30 µM was found for `CNCC1(c2ccc(S(N)(=O)=NC(=O)Nc3c4c(cc5c3CCC5)CCC4)c(F)c2)CC1` (single isomer, unassigned) [Example 529, (S) or (R)-2-fluoro-N′-((1,2,3,5,6,7-hexahydro-s-indacen-4-yl)carbamoyl)-4-(1-((methylamino)methyl)cyclopropyl) benzenesulfonimidamide] in this work.

An IC50 [2] of 0.2 to 1 µM was found for `CC(C)c1cnc([S@@](N)(=O)=NC(=O)Nc2c3c(cc4c2CCC4)CCC3)c(F)c1` [Compound 903a] in this work.

An IC50 [2] of 1 to 5 µM was found for `CN(C)Cc1ccc(S(N)(=O)=NC(=O)Nc2c3c(cc4c2CCC4)CCC3)s1` (stereo not drawn) [Compound 889] in this work.

An IC50 [2] of 0.2 to 1 µM was found for `C[C@@](O)(CO)c1ncc([S@@](N)(=O)=NC(=O)Nc2c3c(cc4c2C(=O)CC4)CCC3)s1` [Compound 920b] in this work.

An IC50 [1] of 0.2 to 1 µM was found for `CC(O)(CO)c1ncc(S(N)(=O)=NC(=O)Nc2c3c(c(C#N)c4c2CCC4)CCC3)s1` (single isomer, unassigned) [Example 637, (R,R) or (S,R)-N′-((8-cyano-1,2,3,5,6,7-hexahydro-s-indacen-4-yl)carbamoyl)-2-(1,2-dihydroxypropan-2-yl)thiazole-5-sulfonimidamide] in this work.

An IC50 [4] of 0.008 to 0.04 µM was found for `CN[C@H](c1ccc(S(N)(=O)=NC(=O)Nc2c3c(cc4c2CC4)CCC3)s1)C1CC1` (single isomer, unassigned) [Example 868, (R, R) or (S, R)-5-(cyclopropyl(methylamino)methyl)-N′-((2,4,5,6-tetrahydro-1H-cyclobuta[f]inden-3-yl)carbamoyl)thiophene-2-sulfonimidamide] in this work.

An IC50 [2] of 5 to 30 µM was found for `CNCc1cccc(S(N)(=O)=NC(=O)Nc2c3c(cc4c2CCC4)CCC3)c1` (stereo not drawn) [Example 508, N′-((1,2,3,5,6,7-hexahydro-s-indacen-4-yl)carbamoyl)-3-((methylamino)methyl) benzenesulfonimidamide] in this work.

An IC50 [2] of 1 to 5 µM was found for `CN(Cc1ccc(S(N)(=O)=NC(=O)Nc2c3c(cc4c2CCC4)CCC3)cc1)CC(F)F` (single isomer, unassigned) [Example 610, (R) or (S)-4-(((2,2-difluoroethyl) (methyl)amino)methyl)-N′-((1,2,3,5,6,7-hexahydro-s-indacen-4-yl)carbamoyl) benzenesulfonimidamide] in this work.

An IC50 [1] of 1 to 5 µM was found for `CN1CCc2sc(S(N)(=O)=NC(=O)Nc3c4c(cc5c3CCC5)CCC4)cc2C1` (single isomer, unassigned) [Example 688, (S) or (R)-N′-((1,2,3,5,6,7-hexahydro-s-indacen-4-yl)carbamoyl)-5-methyl-4,5,6,7-tetrahydrothieno [3,2-c]pyridine-2-sulfonimidamide] in this work.

In the case of `CC(C)Cc1ccc(S(N)(=O)=NC(=O)Nc2c3c(cc4c2CCC4)CCC3)cc1` (single isomer, unassigned) [Example 618, (S) or (R)-N′-((1,2,3,5,6,7-hexahydro-s-indacen-4-yl)carbamoyl)-4-isobutylbenzene-sulfonimidamide], the IC50 (Homo sapiens, THP-1, hTHP-1 assay containing 2% fetal bovine serum, Table B2, given as bound, read-out: IC50) is reported as > 30 µM.

An IC50 [1] of 5 to 30 µM was found for `CC(OC(F)F)c1ccc(S(N)(=O)=NC(=O)Nc2c3c(cc4c2CCC4)CCC3)cc1` (single isomer, unassigned) [Example 642] in this work.

An IC50 [4] of 0.2 to 1 µM was found for `CC(C)c1cnc(S(N)(=O)=NC(=O)Nc2c3c(cc4c2CCC4)CCC3)c(F)c1` (single isomer, unassigned) [Example 811, (R) or (S)-3-fluoro-N′-((1,2,3,5,6,7-hexahydro-s-indacen-4-yl)carbamoyl)-5-isopropylpyridine-2-sulfonimidamide] in this work.

An IC50 [1] of 0.2 to 1 µM was found for `CC(O)(CO)c1ncc(S(N)(=O)=NC(=O)Nc2c3c(cc4c2CCC4)CCC3)s1` (single isomer, unassigned) [Example 627, (R,S) or (S,S)-1,2-dihydroxypropan-2-yl)-N′-((l,2,3,5,6,7-hexahydro-s-indacen-4-yl) carbamoyl) thiazole-5-sulfonimidamide] in this work.

An IC50 [2] of 1 to 5 µM was found for `CNC(C)(C)c1ccc(S(N)(=O)=NC(=O)Nc2c3c(cc4c2CCC4)CCC3)cc1` (stereo not drawn) [Example 486, N′-((1,2,3,5,6,7-hexahydro-s-indacen-4-yl)carbamoyl)-4-(2-(methylamino)propan-2-yl) benzenesulfonimidamide] in this work.

An IC50 [4] of 0.2 to 1 µM was found for `NS(=O)(=NC(=O)Nc1c2c(cc3c1CCC3)CCC2)c1sc(CNC2CCC2)cc1F` (single isomer, unassigned) [Example 795, (R) or (S)-5-((cyclobutylamino)methyl)-3-fluoro-N′-((1,2,3,5,6,7-hexahydro-s-indacen-4-yl)carbamoyl)thiophene-2-sulfonimidamide] in this work.

An IC50 [3] of 0.2 to 1 µM was found for `NS(=O)(=NC(=O)Nc1c2c(cc3c1CC3)CCC2)c1sc(CN2CCC2)cc1F` (stereo not drawn) [Example 718, 5-(Azetidin-1-ylmethyl)-3-fluoro-N′-((2,4,5,6-tetrahydro-1H-cyclobuta[f]inden-3-yl)carbamoyl)thiophene-2-sulfonimidamide] in this work.
